Source: patent publication US12371668B2, “Methods for tissue generation” (priority 2018, dated 2025)
Entries after “also recorded” stand apart in the source; their conditions may differ.

Tests used:
[1] = tested on: atrial tissues derived from Hes3 hESC-CM; test: Intracellular action potential recordings in atrial Biowires; format: cell-based, human
Description: (§1) Tissues were perfused with 35-37° C. Kreb's Solution (118 mM NaCl, 4.2 mM KCl, 1.2 mM KH2PO4, 1.2 mM MgSO4, 1.8 mM CaCl2, 23 mM NaHCO3, 2 mM Na-pyruvate and 20 mM glucose, equilibrated with 95% 02 and 5% CO2, pH 7.4) or DMEM medium. They were paced at twice the ET. The action potential was recorded with high impedance microelectrodes (60-90 MΩ) filled with 3M KCl, connected to an Axopatch 200B amplifier (Axon Instruments). Recordings were performed in current clamp mode at 2 kHz and signals were analyzed using the Clampfit 10 Data Analysis Module of the pCLAMP™ 10 Electrophysiology Data Acquisition & Analysis Software (Axon Instruments). The movement of the tissue was minimized by perfusing with 10 μM blebbistatin (Toronto Research Chemicals) for 20 min. The effect of various compounds on the action potential was assessed by preparing an appropriate dilution of the compound in Krebs's Solution or DMEM.

[2] = tested on: ventricular tissues derived from BJ1D iPSC-CM; test: Intracellular action potential recordings in ventricular Biowires; format: cell-based, human; conditions: for responses on action potentials: ventricular Biowires, FIGS. 12E-12N
Description: as §1, with “Kreb's Solution (118 mM NaCl, 4.2 mM KCl, 1.2 mM KH2PO4, 1.2 mM MgSO4, 1.8 mM CaCl2, 23 mM NaHCO3, 2 mM Na-pyruvate and 20 mM glucose, equilibrated with 95% 02 and 5% CO2, pH 7.4) or DMEM medium.” left out

[3] = tested on: ventricular Biowires created from BJ1D iPSCs and HES3 ESCs; test: Dynamic force recordings of ventricular Biowires under stimulation; format: cell-based, human; conditions: FIG. 2G
Description: Blue channel image sequences were analyzed using a custom MatLab code that traced the maximum deflection of the POMaC wire. Average tissue width (diameter) and width of the tissue on the polymer wire (Tw) were measured from still frames of the 4× bright field video of the tissue in the relaxed position (FIGS. 8C-8D). Total (at peak contraction) and passive (at rest) POMaC wire deflections were converted to force measurements (μN) using the force calibration curves described in the previous section. The final readouts for the total and passive tension of tissue were then interpolated according to the Tw and custom tip sizes. The active force was calculated as the difference between the total and passive tension (FIG. 2C). The custom MatLab code was used to calculate the passive tension, active force, contraction and relaxation duration, and upstroke and relaxation velocity. To investigate the contractile effects of various compounds on the tissues, a custom testing chamber was fabricated in a 6-well plate modified with an extraction/injection port connected to a 5 mL syringe, a pair of carbon electrodes (set 1 cm apart) with platinum wire lead attachments and a custom 3D-printed holder for a polystyrene chip with a single microwell. Prior to testing, the tissue was transferred to the custom testing chamber and placed in the environmental chamber on the microscope stage (37° C., 5% CO2), where it was allowed to equilibrate for 30 min in the presence of electrical field stimulation (1 Hz, at ET). A bright field video of the tissue was taken before testing to obtain all the necessary measurements for the force calculation. For testing, the voltage was increased to 10% above the ET, and videos were taken of one polymer wire (10× objective). Prior to the test compound injection, media were extracted and injected through the port twice at 10 min intervals to pre-condition the tissue to the testing process. Compounds were diluted in media at concentrations 1000-fold higher than the desired final concentration. For compound testing, ⅓^rd of the media was extracted from the chamber, the compound was added to the extracted media and then injected back into the testing chamber. After 10-15 min, videos in the blue channel were recorded. The procedure was repeated for sequential drug dosages. The videos were analyzed using the custom MatLab software, as indicated for the weekly FFR assessments.

[4] = Long-term absorption test, PDMS chips; format: physicochemical; conditions: 1 wk incubation then washout for 2 hours
Description: (§2) For the long-term absorption test, polystyrene strips containing microwells and POMaC wires, with and without the adhesive, were cut into chips (9 mm×9 mm×1 mm) containing a single microwell. Chips of the same geometry were also made using PDMS. The polystyrene and PDMS chips were incubated in 1 mL Rhodamine B (1 μM; Sigma-Aldrich) in a 24 well-plate at 37° C. for up to 1 wk. Tissue culture treated 24 well-plates were incubated with the dye in the absence of any chips as a control. At 6 h, 24 h, 48 h, and 1 wk, 100 μL of the dye solution was transferred to a 96-well plate and the fluorescence was read using a SpectraMax i3 plate reader (Molecular Devices; λex=540 nm, λem=625 nm), (n=3). Additionally, fluorescent images of the chips were taken in the absence of treatment, after 1 wk of dye incubation, and after 2 h of washing following 1 wk of dye incubation.

[5] = Long-term absorption test, Biowire chips; format: physicochemical
Description: as §2

[6] = tested on: atrial region of heteropolar Biowires (Hes3 hESC); test: Optical mapping of impulse propagation in atrioventricular Biowires, atrial region; format: cell-based, human; conditions: 1 μM
Description: (§3) To generate atrioventricular tissues, dissociated atrial cardiac cells and cardiac fibroblasts were mixed in a 10:1.5 cell number ratio. Dissociated ventricular cells and cardiac fibroblasts were mixed in a 10:1.5 cell number ratio. The mixed cells were pelleted and resuspended at a concentration of 5.75×10^7 cells/mL in collagen hydrogel. When seeding, cell-hydrogel mixture containing atrial CMs (1 μL) were seeded on one side of the Biowire II well first, followed by mixture containing ventricular CMs (1 μL) seeded on the other side. After seeding, tissues were cultured for 7 days to allow for remodeling and compaction around the POMaC wires.
(§4) For atrioventricular preparations, electrical stimulation started at 2 Hz on day 7 and the protocol of 1 Hz weekly step-up was used until the frequency reached 6 Hz. If average MCR exceeded 4 Hz after one week of 2 Hz stimulation, or exceeded 5 Hz after one week of 3 Hz stimulation, stimulation frequency could be changed directly from 2 Hz to 4 Hz or 3 Hz to 5 Hz to accelerate the process. […]
(§5) Tissues were perfused with 5 μM voltage sensitive dye, Di-4-ANEPPS (Invitrogen), in Kreb's Solution at 35-37° C. for 20 min. Dye fluorescence was recorded on an MVX-10 Olympus fluorescence microscope (Olympus Corporation) equipped with a charged coupled device (CCD) (Cascade 128, Photometrics). […]

[7] = tested on: ventricular portions of heteropolar Biowires (Hes3 hESC); test: Optical mapping of impulse propagation in atrioventricular Biowires, ventricular region; format: cell-based, human; conditions: 1 μM, listed as Ranolazine
Description: as §3, §4, §5

[8] = tested on: atrial end of heteropolar atrio-ventricular Biowires (Hes3 hESC); test: Calcium transients in atrioventricular Biowires, atrial end; format: cell-based, human
Description: as §3, with “wires. […]” for “wires.”
(§6) To investigate the relative changes of intracellular calcium concentration, tissues were incubated with the calcium dye Fluo-4 NW (Thermo Fisher) for 30 min at 37° C. prior to testing. To obtain both calcium transients and contractility readouts consecutively and synchronously, the testing process was performed using both green light channel (λex=490 nm, λem=525 nm) and/or blue channel at 10× or 4× magnification. […] The ratio of peak tissue fluorescence intensity to baseline intensity, dF/F0 was calculated to determine the relative changes in intracellular calcium in the presence of the compound. For the consecutive force and calcium transient readouts, contractile measurements were extracted from the blue channel as described before. […]

[9] = tested on: atrial tissue derived from Hes3 hESC-CM; test: Force and calcium transient measurement in atrial Biowires; format: cell-based, human; conditions: atrial preparations, increasing concentrations
Description: To investigate the contractile effects of various compounds on the tissues, a custom testing chamber was fabricated in a 6-well plate modified with an extraction/injection port connected to a 5 mL syringe, a pair of carbon electrodes (set 1 cm apart) with platinum wire lead attachments and a custom 3D-printed holder for a polystyrene chip with a single microwell. Prior to testing, the tissue was transferred to the custom testing chamber and placed in the environmental chamber on the microscope stage (37° C., 5% CO2), where it was allowed to equilibrate for 30 min in the presence of electrical field stimulation (1 Hz, at ET). […] After 10-15 min, videos in the blue channel were recorded. […] The videos were analyzed using the custom MatLab software, as indicated for the weekly FFR assessments.
as §6, with “testing.” for “testing. To obtain both calcium transients and contractility readouts consecutively and synchronously, the testing process was performed using both green light channel (λex=490 nm, λem=525 nm) and/or blue channel at 10× or 4× magnification.”

[10] = tested on: ventricular tissue derived from BJ1D iPSC-CM; test: Force and calcium transient measurement in ventricular Biowires; format: cell-based, human
Description: To investigate the contractile effects of various compounds on the tissues, a custom testing chamber was fabricated in a 6-well plate modified with an extraction/injection port connected to a 5 mL syringe, a pair of carbon electrodes (set 1 cm apart) with platinum wire lead attachments and a custom 3D-printed holder for a polystyrene chip with a single microwell. Prior to testing, the tissue was transferred to the custom testing chamber and placed in the environmental chamber on the microscope stage (37° C., 5% CO2), where it was allowed to equilibrate for 30 min in the presence of electrical field stimulation (1 Hz, at ET). A bright field video of the tissue was taken before testing to obtain all the necessary measurements for the force calculation. For testing, the voltage was increased to 10% above the ET, and videos were taken of one polymer wire (10× objective). Prior to the test compound injection, media were extracted and injected through the port twice at 10 min intervals to pre-condition the tissue to the testing process. […] For compound testing, ⅓^rd of the media was extracted from the chamber, the compound was added to the extracted media and then injected back into the testing chamber. After 10-15 min, videos in the blue channel were recorded. The procedure was repeated for sequential drug dosages. The videos were analyzed using the custom MatLab software, as indicated for the weekly FFR assessments.
To investigate the relative changes of intracellular calcium concentration, tissues were incubated with the calcium dye Fluo-4 NW (Thermo Fisher) for 30 min at 37° C. prior to testing. […] The ratio of peak tissue fluorescence intensity to baseline intensity, dF/F0 was calculated to determine the relative changes in intracellular calcium in the presence of the compound. For the consecutive force and calcium transient readouts, contractile measurements were extracted from the blue channel as described before. For the synchronous readouts, the contractile measurements were extracted from the green channel videos using modified version of the ImageJ SpotTracker plugin. […]

[11] = atrial Biowires, low doses (25 μM)

## Nc1ccncc1 [4AP, 4-aminopyridine]
[1]; [11]
  APD30: prolonged
  action potential amplitudes: increased
[1]; atrial tissues, very low concentrations (<50 μM)
  AP duration: prolonged
[2]; ventricular tissues, higher doses
  APD: did prolong APD
[2]; ventricular tissues, low doses (25 μM)
  action potential amplitudes and APD30: without measurable effects

## Cc1cccc(CCN2CCC(C(=O)c3ccc(NS(C)(=O)=O)cc3)CC2)n1 [E-4031]
[3]
  changes in the active forces and beat patterns: promotes spontaneous irregular beating patterns consistent with arrhythmias

## CCN(CC)c1ccc2c(-c3ccccc3C(=O)O)c3ccc(=[N+](CC)CC)cc-3oc2c1.[Cl-] [Rhodamine B]
[4]
  fluorescence in chip after washout: remained widespread
[5]; 1 μM dye, 37° C., incubation 24 hours and longer
  fluorescence levels in solution versus PDMS chips: remained higher than in PDMS chips
[5]; 1 wk incubation then washout for 2 hours
  fluorescence in chip after washout: undetectable
[5]; after 6 hours
  levels versus tissue plastic well controls: not significantly different

## C[N+](C)(C)CCOC(N)=O [carbachol]
[1]; atrial Biowires
  APDs (action potential durations): abbreviated APDs; also recorded: shortened atrial APDs only
[2]; ventricular tissues
  APDs (action potential durations): without affecting these parameters

## COc1ccc([C@@H]2Sc3ccccc3N(CCN(C)C)C(=O)[C@@H]2OC(C)=O)cc1 [diltiazem]
[3]
  changes in the active forces and beat patterns: produces negative inotropic effects

## CN(CCOc1ccc(NS(C)(=O)=O)cc1)CCc1ccc(NS(C)(=O)=O)cc1 [dofetilide]
[2]
  responses on action potentials: predictable responses

## CC(C)NCC(O)c1ccc(O)c(O)c1 (centres unmarked) [isoproterenol]
[3]
  changes in the active forces and beat patterns: increases contractility

## CCN(CC)CC(=O)Nc1c(C)cccc1C [lidocaine]
[3]
  changes in the active forces and beat patterns: inhibits tissue electrical excitability

## Cc1[nH]c(=O)c(C#N)cc1-c1ccncc1 [milrinone]
[3]
  changes in the active forces and beat patterns: enhances contractility

## COc1ccccc1OCC(O)CN1CCN(CC(=O)Nc2c(C)cccc2C)CC1 (centres unmarked) [ranolazine]
[6]
  conduction velocity: significantly slowed down
[6]; listed as Ranolazine
  conduction velocity: decreased conduction velocity
[7]
  conduction velocity: without affecting

## NCCc1c[nH]c2ccc(O)cc12 [serotonin]
[8]
  Ca2+ transients: increased; also recorded: positive inotropic effect

## C/C=C(/C)C(=O)O[C@H]1C(C)=C2[C@H]([C@@H]1OC(=O)CCCCCCC)[C@@](C)(OC(C)=O)C[C@H](OC(=O)CCC)[C@@]1(O)[C@H]2OC(=O)[C@@]1(C)O [thapsigargin]
[9]
  force and Ca′ transient amplitudes: dose-dependently decreased
[10]; decrease of force and Ca′ transient amplitudes
  potency in ventricular versus atrial preparations: higher potency in ventricle
[10]; ventricular Biowires, low pacing rates
  time-to-peak and decay rates of both force and Ca2+: prolonged
[10]; ventricular preparations, increasing concentrations
  force and Ca′ transient amplitudes: dose-dependently decreased

## COc1ccc(CCN(C)CCCC(C#N)(c2ccc(OC)c(OC)c2)C(C)C)cc1OC (centres unmarked) [verapamil]
[2]
  responses on action potentials: predictable responses
